From patent US20040023994A1 (priority 2002, published 2004)
Where two headings read alike, the source gives them in different places. Marks after values point to notes of the source that are not given here.

Experiments:
SW-620 = settings: SW-620, Colon, NCI database, cited from earlier work; for CC50: read-out: LC50 (the source's name)
U251 = settings: U251, CNS, NCI database, cited from earlier work; for CC50: read-out: LC50 (the source's name)
UACC-62 = settings: UACC-62, Melanoma, NCI database, cited from earlier work; for CC50: read-out: LC50 (the source's name)
HL-60(TB) = settings: cited from earlier work; for GI50 / TGI: Leukemia, NCI database; for CC50: read-out: LC50, Leukemia, NCI database
SK-MEL-5 [1] = settings: SK-MEL-5, Melanoma, NCI database, cited from earlier work; for CC50: read-out: LC50 (the source's name)
UO-31 = settings: UO-31, Renal, NCI database, cited from earlier work; for CC50: read-out: LC50 (the source's name)
MALME-3M = settings: Melanoma, NCI database, cited from earlier work; for CC50: read-out: LC50 (the source's name)
MDA-MB-231/ATCC = settings: Breast, NCI database, cited from earlier work; for CC50: read-out: LC50 (the source's name)
CCRF-CEM = settings: Leukemia, NCI database, cited from earlier work; for CC50: read-out: LC50 (the source's name)
SNB-75 = settings: SNB-75, CNS, NCI database, cited from earlier work; for CC50: read-out: LC50 (the source's name)
UACC-257 = settings: UACC-257, Melanoma, NCI database, cited from earlier work; for CC50: read-out: LC50 (the source's name)
BT-549 = settings: BT-549, Breast, NCI database, cited from earlier work; for CC50: read-out: LC50 (the source's name)
SK-OV-3 = settings: SK-OV-3, Ovarian, NCI database, cited from earlier work; for CC50: read-out: LC50 (the source's name)
[2] = tested on: Heterozygous nude CD-1 male mice; experiment: Hematology analyses in treated mice; settings: i.p.; for change in peripheral white blood cell counts: trans-AVTG: only 21.25 μmol/kg two cycles, 6-TG: 8.5 or 21.25 μmol/kg one cycle or 21.25 μmol/kg two cycles
Procedure: Heterozygous nude CD-1 male mice were treated (i.p.) with multiple doses consisting of either one dose daily for three consecutive days (cis-AVTP or trans-AVTG, 21.25 μmol/kg, 6-TG, 8.5 or 21.25 μmol/kg, or vehicle; one cycle), or one dose daily for three consecutive days, repeated again five days later (cis-AVTP, trans-AVTG or 6-TG, 8.5 or 21.25 μmol/kg, or vehicle; two cycles).
The mice were sacrificed 24 h after the last treatment. Urine was collected for 24 h before initiation of treatment and every 24 h thereafter until the mice were sacrificed. Blood was collected by cardiac puncture and blood cells counted. Sections of liver, kidney, intestines, stomach and sternum were stained with hematoxylin and eosin and subjected to pathological analysis. Bone marrow smears were prepared for assessment of bone marrow cellularity. Liver function was evaluated by measuring alanine aminotransferase-(ALT) and aspartate aminotransferase (AST) activities in plasma. Kidney function was evaluated by measuring blood urea nitrogen in plasma and γ-glutamyltransferase activity and glucose levels in urine.

IGR-OV1 = settings: for CC50: read-out: LC50
SK-MEL-5 [3] = settings: for CC50: read-out: LC50
SK-MEL-28 = settings: for CC50: read-out: LC50
OVCAR-3 = settings: for CC50: read-out: LC50
SN12C = format: cell-based; settings: Renal, 48 h
KM12 = settings: for CC50: read-out: LC50
786-0 = settings: for CC50: read-out: LC50

## Sc1ncnc2nc[nH]c12 [6-MP, 6-mercaptopurine]
SW-620
  GI50: 6.82 µM
  TGI: >100 µM
  CC50: > 100 µM
U251
  GI50: 11.8 µM
  TGI: >100 µM
  CC50: > 100 µM
UACC-62
  GI50: 1.63 µM
  TGI: >100 µM
  CC50: > 100 µM
HL-60(TB)
  GI50: 2.3 µM
  TGI: >100 µM
  CC50: > 100 µM
SK-MEL-5 [1]
  GI50: 8.59 µM
  TGI: >100 µM
  CC50: > 100 µM
UO-31
  GI50: 6.52 µM
  TGI: >100 µM
  CC50: > 100 µM
MALME-3M
  CC50: > 100 µM
  GI50: 4.28 µM
  TGI: >100 µM
MDA-MB-231/ATCC
  CC50: > 100 µM
  GI50: 16.4 µM
  TGI: >100 µM
CCRF-CEM
  CC50: > 100 µM
  GI50: 1.22 µM
  TGI: >100 µM
SNB-75
  GI50: 7.93 µM
  TGI: >100 µM
  CC50: > 100 µM
UACC-257
  GI50: 14.2 µM
  TGI: >100 µM
  CC50: > 100 µM
BT-549
  GI50: > 100 µM
  TGI: >100 µM
  CC50: > 100 µM
SK-OV-3
  GI50: 0.97 µM
  TGI: >100 µM
  CC50: > 100 µM

## Nc1nc2nc[nH]c2c(=S)[nH]1 [6-TG, 6-thioguanine]
SW-620
  GI50: 1.52 µM
  TGI: >100 µM
  CC50: > 100 µM
U251
  GI50: 4.89 µM
  TGI: >100 µM
  CC50: > 100 µM
UACC-62
  GI50: 0.5 µM
  TGI: 4.53 µM
  CC50: 74.1 µM
HL-60(TB)
  GI50: 1.07 µM
  TGI: 17.8 µM
  CC50: > 100 µM
SK-MEL-5 [1]
  GI50: 3.53 µM
  TGI: 16.4 µM
  CC50: 88.1 µM
UO-31
  GI50: 1.48 µM
  TGI: 32.3 µM
  CC50: > 100 µM
MALME-3M
  CC50: > 100 µM
  GI50: 1.34 µM
  TGI: 28.6 µM
MDA-MB-231/ATCC
  CC50: > 100 µM
  GI50: 1.94 µM
  TGI: >100 µM
CCRF-CEM
  CC50: > 100 µM
  GI50: 0.15 µM
  TGI: 25.4 µM
SNB-75
  GI50: 1.42 µM
  TGI: 41.3 µM
  CC50: > 100 µM
UACC-257
  GI50: 1.98 µM
  TGI: 95.7 µM
  CC50: > 100 µM
BT-549
  GI50: 3.59 µM
  TGI: >100 µM
  CC50: > 100 µM
SK-OV-3
  GI50: 0.54 µM
  TGI: 16.4 µM
  CC50: > 100 µM
[2]; 8.5 μmol/kg, one cycle
  PLT: 1172 ± 161 × 10^3 cells/μl
  RBC: 8.3 ± 0.4 × 10^6 cells/μl
  WBC: 4.8 ± 1.2 × 10^3 cells/μl
[2]; 8.5 μmol/kg, two cycles
  PLT: 906 ± 140 × 10^3 cells/μl
  RBC: 8.3 ± 0.2 × 10^6 cells/μl
  WBC: 5.3 ± 1.6 × 10^3 cells/μl
[2]; 21.25 μmol/kg, one cycle
  PLT: 752 ± 416^b × 10^3 cells/μl
  RBC: 8.4 ± 0.6^a × 10^6 cells/μl
  WBC: 3.8 ± 1.1^b,* × 10^3 cells/μl
[2]; 21.25 μmol/kg, two cycles
  PLT: 1351 ± 126 × 10^3 cells/μl
  RBC: 8.0 ± 0.3 × 10^6 cells/μl
  WBC: 3.6 ± 0.1 × 10^3 cells/μl
[2]
  change in peripheral white blood cell counts: reduced white blood cell counts

## CC(=O)C=CSc1ncnc2nc[nH]c12 [cis-AVTP, 6-(2-acetylvinylthio) purine]
IGR-OV1; Homo sapiens, IGROV-1, 48 h
  GI50: 2 µM
  CC50: 29.8 µM
IGR-OV1; IGR-OV1, Ovarian, 48 h
  TGI: 7.72 µM
SK-MEL-5 [3]; Homo sapiens, SK-MEL-5, 48 h
  GI50: 1.3 µM
  CC50: 8.07 µM
SK-MEL-5 [3]; SK-MEL-5, Melanoma, 48 h
  TGI: 3.24 µM
SK-MEL-28; Homo sapiens, SK-MEL-28, 48 h
  GI50: 1.84 µM
  CC50: 9.58 µM
SK-MEL-28; SK-MEL-28, Melanoma, 48 h
  TGI: 4.19 µM
OVCAR-3; Homo sapiens, OVCAR-3, 48 h
  GI50: 0.03 µM
  CC50: 8.67 µM
OVCAR-3; OVCAR-3, Ovarian, 48 h
  TGI: 0.47 µM
ACHN; Homo sapiens, 48 h
  GI50: 1.99 µM
ACHN; Homo sapiens, 48 h, read-out: LC50
  CC50: 7.59 µM
ACHN; Renal, 48 h
  TGI: 3.89 µM
SN12C; Homo sapiens
  GI50: 2.03 µM
SN12C; Homo sapiens, read-out: LC50 (the source's name)
  CC50: 28.1 µM
SN12C
  TGI: 5.75 µM
KM12; Homo sapiens, KM12, 48 h
  GI50: 3.35 µM
  CC50: > 100 µM
KM12; KM12, Colon, 48 h
  TGI: 27.2 µM
[2]; 8.5 μmol/kg, two cycles
  PLT: 1160 ± 349 × 10^3 cells/μl
  RBC: 9.5 ± 0.3 × 10^6 cells/μl
  WBC: 5.9 ± 2.3 × 10^3 cells/μl
[2]; 21.25 μmol/kg, one cycle
  PLT: 1644 ± 253^a × 10^3 cells/μl
  RBC: 8.9 ± 0.6^a × 10^6 cells/μl
  WBC: 8.0 ± 1.2^a × 10^3 cells/μl
[2]; 21.25 μmol/kg, two cycles
  PLT: 1257 ± 335 × 10^3 cells/μl
  RBC: 9.0 ± 0.5 × 10^6 cells/μl
  WBC: 8.4 ± 1.9 × 10^3 cells/μl
[2]
  change in peripheral white blood cell counts: No change
786-0; 786-0, Renal, 48 h
  TGI: 3.48 µM
786-0; Homo sapiens, 786-0, 48 h
  GI50: 0.37 µM
  CC50: 24.9 µM

## CC(=O)C=CSc1nc(N)nc2nc[nH]c12 [trans-AVTG, 6-(2-acetylvinylthio) guanine]
IGR-OV1; IGR-OV1, Ovarian, 48 h
  GI50: 0.03 µM
  TGI: 0.08 µM
  CC50: 7.86 µM
SK-MEL-5 [3]; SK-MEL-5, Melanoma, 48 h
  GI50: 1.68 µM
  TGI: 8.10 µM
  CC50: 41.7 µM
SK-MEL-28; SK-MEL-28, Melanoma, 48 h
  GI50: 11.6 µM
  TGI: 24.8 µM
  CC50: 52.7 µM
OVCAR-3; OVCAR-3, Ovarian, 48 h
  GI50: 0.24 µM
  TGI: 0.63 µM
  CC50: 12.1 µM
ACHN; Renal, 48 h
  GI50: 3.63 µM
  TGI: 51.4 µM
ACHN; read-out: LC50, Renal, 48 h
  CC50: > 100 µM
SN12C
  GI50: 2.84 µM
  TGI: 14.3 µM
KM12; KM12, Colon, 48 h
  GI50: 2.71 µM
  TGI: 13.0 µM
  CC50: 64.8 µM
786-0; 786-0, Renal, 48 h
  GI50: 0.98 µM
  TGI: 21.9 µM
  CC50: > 100 µM
